Measured values as given in ChEMBL document CHEMBL1137918, “Synthesis and antiproliferative activity of 2-aryl-4-oxo-thiazolidin-3-yl-amides for prostate cancer” (Bioorg Med Chem Lett, 2004).
pIC50: −log10 of the molar value.

Assays:
Format in all cases: functional, cell-based
PC-3 = test: Antiproliferative activity was evaluated against human prostate PC-3 cancer cell lines using the sulforhodamine B ([…]) assay
[1] = Antiproliferative activity was evaluated against human prostate PPC-1 cancer cell lines using the sulforhodamine B ([…]) assay
LNCaP = test: Antiproliferative activity was evaluated against human prostate LNCaP cancer cell lines using the sulforhodamine B ([…]) assay
[2] = Antiproliferative activity was evaluated against human prostate TSU cancer cell lines using the sulforhodamine B ([…]) assay
DU-145 = test: Antiproliferative activity was evaluated against human prostate DU-145 cancer cell lines using the sulforhodamine B ([…]) assay

Row | pIC50 (PC-3) | pIC50 (LNCaP) | pIC50 (DU-145) | Structure (SMILES) | pIC50 [1] | pIC50 [2]
1 | < 4.70 | < 4.70 | 4.80 | CCCCCCCCCCCCCCCCCCNCCN1CCSC1c1ccccc1 (centres undefined) | 4.92 | 5.21
2 | < 4.00 | < 4.00 | – | COc1ccc(CCNC(=O)CN2C(=O)CSC2c2ccccc2)cc1OC (centres undefined) | < 4.00 | < 4.00
